The text below walks through data of PubChem BioAssay (NCI).

Each structure is given as a SMILES string.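 A five-concentration, 48-hour dose response in 96-well plates underlies each endpoint, interpolated linearly between surrounding concentrations. Abbreviation: GI50, concentration required for 50% inhibition of growth. The concentration for full growth arrest is given as TGI.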 Bounds are passed on as bounds.

Holding throughout (assay): inhibition of tumour cell growth, NCI panel, 48 h
Assay [1] concerns HT29 colon.
Assay [2] deals with U251 CNS.
The subject of assay [3] is HCT-116 colon.
Assay [4] has as its system SF-268 CNS.
Assay [5] has as its system A549 NSCLC.
The subject of assay [6] is OVCAR-5 ovarian.
The subject of assay [7] is NCI-H23 lung.
For assay [8], the system named is HOP-62 NSCLC.
Assay [9] deals with SK-OV-3 ovarian.
In assay [10] the test system is SW-620 colon.

In the case of `O=[Se]([O-])c1ccccc1.O=[Se]([O-])c1ccccc1.[OH3+].[OH3+].[Pt+2]`, the GI50 in assay [1] was 3.09 µM; in assay [2], 9.51 µM; in assay [3], 3.14 µM; in [4], 6.37 µM; in [5], 12.2 µM; in assay [6], 15.5 µM. Also, the GI50 was 7.01 µM in [7], 18.5 µM in assay [8], 56.6 µM in assay [9] and 5.24 µM in assay [10]. Also, the TGI in assay [1] worked out at 14.6 µM; in assay [2], 17.2 µM; in assay [3], 9.5 µM; in assay [4] it was 18.2 µM; in [5] it was 58.8 µM; in assay [6], 39.1 µM. Also, the TGI was 88.4 µM in [7], 31.2 µM in [8], greater than 100 µM in assay [9] and 25.2 µM in [10].

`CSC1=Nc2ccccc2N(C)c2c1c(-c1ccccc1)nn2C`: the TGI in assay [1], in [2], in [3], in [4], in assay [5] and in assay [6] was greater than 100 µM throughout. For the same compound, the TGI in assay [7], in assay [9] and in assay [10] was greater than 100 µM throughout.

For `N#Cc1c(NC(=S)NC(=O)c2ccccc2)nc2c(c1-c1ccccc1)CCC2`, the TGI in assay [1], in assay [2], in [3], in assay [4], in assay [5] and in assay [6] was greater than 100 µM in each case. Also, the TGI in [7], in [8], in [9] and in assay [10] was greater than 100 µM each time.

Regarding `COC1OC(=O)[C@H]2O[N+]([O-])=C(C)[C@@H]12` (stereo partly specified), the TGI in assay [1], in assay [2], in assay [3], in assay [4], in assay [5] and in assay [6] was greater than 100 µM each time. The TGI in assay [7], in [8], in [9] and in assay [10] was greater than 100 µM each time.

Turning to `C=CC(=O)Nc1cccc(-c2nc(SC)nc(Nc3ccccc3OC)c2C#N)c1`, the GI50 was 2.85 µM in assay [4]; 2.08 µM in assay [5]; 2.26 µM in assay [6]; 2.15 µM in assay [7]; 2.25 µM in assay [8]; 6.09 µM in [9]. Also, the TGI was found to be 14.3 µM in [4]; 5.24 µM in assay [5]; 5.92 µM in [6]; 5.99 µM in [7]; 6.17 µM in assay [8]; 26.9 µM in [9].

Turning to `Nc1n[nH]c(=O)[nH]1`, the TGI in assay [1], in assay [2], in assay [3], in assay [4], in assay [5] and in assay [6] was greater than 100 µM each time. Also, the TGI in [7], in [8], in assay [9] and in assay [10] was greater than 100 µM throughout.

For the compound `O=C1CC(=O)N(c2ccccc2)N1/C(=C/c1ccccc1)c1ccccc1`, the TGI in assay [1] was 44.2 µM; in assay [2], 27.7 µM; in [3] it was 32 µM; in [4] it was 36.3 µM; in [5], greater than 100 µM; in [6], greater than 100 µM. In addition, the TGI in [7] came out at 65.4 µM; in [8] it was 54.5 µM; in assay [9] it was 76.5 µM; in assay [10] it was 37.7 µM.
